From ChEMBL document CHEMBL1201862, “PubChem BioAssay data set” (2004)
Activity calls are given as the source filed them.

Key:
[1] = molecular target: T1, Epstein-Barr nuclear antigen 1 (Epstein-Barr virus (strain B95-8) (HHV-4) (Human herpesvirus 4), UniProt P03211); test: inhibition of EBV nuclear antigen 1 DNA binding – biochemical, fluorescence polarization, 1536-well, dose response (AID 2381); set-up: species or system human gammaherpesvirus 4;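 note: fluorescence polarization of a Cy5 DNA probe bound by EBNA-1 protein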
T1 sequence (P03211 whole entry): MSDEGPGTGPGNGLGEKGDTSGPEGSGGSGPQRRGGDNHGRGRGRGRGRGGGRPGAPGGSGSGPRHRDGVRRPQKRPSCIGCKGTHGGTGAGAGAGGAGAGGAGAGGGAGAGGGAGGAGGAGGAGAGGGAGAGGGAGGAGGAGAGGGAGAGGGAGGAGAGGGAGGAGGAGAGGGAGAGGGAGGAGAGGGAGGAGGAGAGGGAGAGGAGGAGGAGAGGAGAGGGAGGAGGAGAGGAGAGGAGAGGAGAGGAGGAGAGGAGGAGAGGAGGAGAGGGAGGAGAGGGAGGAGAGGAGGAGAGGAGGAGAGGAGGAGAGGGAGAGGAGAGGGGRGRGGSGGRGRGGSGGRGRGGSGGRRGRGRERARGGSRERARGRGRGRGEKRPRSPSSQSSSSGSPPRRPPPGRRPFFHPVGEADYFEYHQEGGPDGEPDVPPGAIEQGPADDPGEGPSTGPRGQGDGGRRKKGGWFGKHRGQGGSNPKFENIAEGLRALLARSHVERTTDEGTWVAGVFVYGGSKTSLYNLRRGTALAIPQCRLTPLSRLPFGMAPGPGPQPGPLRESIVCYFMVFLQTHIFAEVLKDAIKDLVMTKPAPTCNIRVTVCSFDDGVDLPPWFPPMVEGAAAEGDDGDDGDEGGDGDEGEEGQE

[2] = molecular target: T2, Lytic switch protein BZLF1 (Epstein-Barr virus (strain B95-8) (HHV-4) (Human herpesvirus 4), UniProt P03206); test: inhibition of BZLF1 ZTA DNA binding – biochemical, fluorescence polarization, Epstein-Barr virus, 1536-well, counter-screen for EBNA-1 inhibitor project, dose response (AID 2377); set-up: species or system human gammaherpesvirus 4;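 note: fluorescence polarization of Cy5-labelled ZRE DNA probe bound by purified Zta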
T2 sequence (P03206 whole entry): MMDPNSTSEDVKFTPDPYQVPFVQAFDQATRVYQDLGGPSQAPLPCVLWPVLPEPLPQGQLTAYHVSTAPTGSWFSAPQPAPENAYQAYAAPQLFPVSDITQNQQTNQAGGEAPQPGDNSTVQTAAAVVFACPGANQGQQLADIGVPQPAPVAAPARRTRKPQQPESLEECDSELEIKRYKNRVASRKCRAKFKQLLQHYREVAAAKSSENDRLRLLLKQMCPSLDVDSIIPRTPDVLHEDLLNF

[3] = molecular target: DNA damage-inducible transcript 3 protein (Mus musculus, UniProt P35639); format: functional, Cricetulus griseus
DNA damage-inducible transcript 3 protein, sequence (P35639 whole entry): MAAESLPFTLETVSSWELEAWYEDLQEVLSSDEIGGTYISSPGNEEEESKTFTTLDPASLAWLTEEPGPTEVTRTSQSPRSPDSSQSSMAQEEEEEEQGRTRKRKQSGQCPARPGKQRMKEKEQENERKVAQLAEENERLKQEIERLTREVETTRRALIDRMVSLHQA

Cytochrome P450 2C19 = Cytochrome P450 2C19 (Homo sapiens, UniProt P33261); test: Cytochrome panel assay with activity outcomes. Panel member name: p450-cyp2c19 Compounds with AC50 equal or less than 10 uM are considered active; format: functional; conditions: read-out: AC50
Cytochrome P450 2C19, sequence (P33261 whole entry): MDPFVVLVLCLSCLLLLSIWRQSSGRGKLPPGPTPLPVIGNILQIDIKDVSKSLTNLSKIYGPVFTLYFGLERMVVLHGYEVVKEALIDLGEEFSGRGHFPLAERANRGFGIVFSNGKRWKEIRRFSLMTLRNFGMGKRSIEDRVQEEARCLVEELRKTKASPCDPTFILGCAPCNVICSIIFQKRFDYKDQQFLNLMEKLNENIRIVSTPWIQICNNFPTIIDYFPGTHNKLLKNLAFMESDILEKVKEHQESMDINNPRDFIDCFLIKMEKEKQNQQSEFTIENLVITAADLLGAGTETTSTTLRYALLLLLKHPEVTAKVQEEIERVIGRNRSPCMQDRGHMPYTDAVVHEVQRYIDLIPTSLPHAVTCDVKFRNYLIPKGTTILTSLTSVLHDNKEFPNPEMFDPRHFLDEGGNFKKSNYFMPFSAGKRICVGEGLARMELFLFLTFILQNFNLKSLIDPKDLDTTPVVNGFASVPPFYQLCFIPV

[4] = molecular target: DNA dC->dU-editing enzyme APOBEC-3A (Homo sapiens, UniProt P31941); test: Dose Response confirmation of small molecule APOBEC3A DNA Deaminase Inhibitors via a fluorescence-based single-stranded DNA deaminase assay. [Related pubchem assays (depositor defined):AID493011, AID493024]; format: functional
DNA dC->dU-editing enzyme APOBEC-3A, sequence (P31941 whole entry): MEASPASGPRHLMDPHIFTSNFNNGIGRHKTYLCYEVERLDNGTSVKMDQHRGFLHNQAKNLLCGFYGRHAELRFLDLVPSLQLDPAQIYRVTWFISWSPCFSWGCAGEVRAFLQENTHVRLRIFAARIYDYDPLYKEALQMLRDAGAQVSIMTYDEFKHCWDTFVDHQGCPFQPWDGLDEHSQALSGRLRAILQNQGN

[5] = molecular target: DNA dC->dU-editing enzyme APOBEC-3G (Homo sapiens, UniProt Q9HC16); format: functional;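 note: Dose-response counterscreen measuring inhibition of APOBEC3G DNA deaminase activity, run while confirming APOBEC3A inhibitors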
DNA dC->dU-editing enzyme APOBEC-3G, sequence (Q9HC16 whole entry): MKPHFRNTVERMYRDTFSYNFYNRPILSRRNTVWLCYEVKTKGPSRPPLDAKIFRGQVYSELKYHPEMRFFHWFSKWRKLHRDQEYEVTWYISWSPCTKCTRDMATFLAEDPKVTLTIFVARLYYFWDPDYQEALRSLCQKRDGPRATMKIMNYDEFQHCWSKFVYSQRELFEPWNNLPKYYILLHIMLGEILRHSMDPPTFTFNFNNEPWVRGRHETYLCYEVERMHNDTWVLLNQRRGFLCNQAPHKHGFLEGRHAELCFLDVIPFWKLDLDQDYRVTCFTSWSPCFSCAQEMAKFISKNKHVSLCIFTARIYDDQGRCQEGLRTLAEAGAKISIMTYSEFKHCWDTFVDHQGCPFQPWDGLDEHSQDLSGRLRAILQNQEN

[6] = viability loss of HPDE-C7K cells – cell-based, fluorescence, HTS, primary screen (AID 431); format: functional; conditions: Homo sapiens
[7] = molecular target: E3 ubiquitin-protein ligase Mdm2/Protein Mdm4 (Homo sapiens, UniProt O15151+Q00987); test: disruption of Mdm2/MdmX protein binding – luminescence detection, dose response (AID 504593); format: functional
E3 ubiquitin-protein ligase Mdm2/Protein Mdm4, sequence (Q00987 whole entry): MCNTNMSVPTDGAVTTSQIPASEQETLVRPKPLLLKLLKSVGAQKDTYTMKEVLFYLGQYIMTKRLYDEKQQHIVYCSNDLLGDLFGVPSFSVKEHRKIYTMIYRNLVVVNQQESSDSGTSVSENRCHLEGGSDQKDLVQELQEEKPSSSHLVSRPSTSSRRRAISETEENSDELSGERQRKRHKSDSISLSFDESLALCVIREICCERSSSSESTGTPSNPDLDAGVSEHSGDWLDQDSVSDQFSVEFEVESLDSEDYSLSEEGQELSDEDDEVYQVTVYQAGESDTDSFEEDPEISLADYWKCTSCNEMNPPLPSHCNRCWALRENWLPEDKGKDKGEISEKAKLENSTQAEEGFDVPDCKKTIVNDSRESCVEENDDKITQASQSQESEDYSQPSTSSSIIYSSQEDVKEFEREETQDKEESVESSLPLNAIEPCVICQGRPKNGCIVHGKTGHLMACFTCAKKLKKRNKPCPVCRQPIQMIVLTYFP
E3 ubiquitin-protein ligase Mdm2/Protein Mdm4, sequence (O15151 whole entry): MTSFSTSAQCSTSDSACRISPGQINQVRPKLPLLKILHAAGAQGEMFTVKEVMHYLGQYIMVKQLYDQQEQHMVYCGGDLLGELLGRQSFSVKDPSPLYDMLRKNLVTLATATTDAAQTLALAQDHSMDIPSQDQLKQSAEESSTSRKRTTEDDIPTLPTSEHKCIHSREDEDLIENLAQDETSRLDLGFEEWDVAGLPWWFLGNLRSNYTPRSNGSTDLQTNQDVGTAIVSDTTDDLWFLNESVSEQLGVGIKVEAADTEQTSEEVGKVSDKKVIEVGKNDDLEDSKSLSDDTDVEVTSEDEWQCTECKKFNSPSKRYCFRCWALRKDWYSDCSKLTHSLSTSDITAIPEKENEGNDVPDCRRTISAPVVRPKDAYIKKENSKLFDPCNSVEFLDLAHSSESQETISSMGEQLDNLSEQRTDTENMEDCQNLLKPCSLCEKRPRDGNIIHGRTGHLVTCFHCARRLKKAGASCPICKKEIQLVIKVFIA

[8] = HPDE-C7 pancreatic duct cell viability loss – fluorescence, HTS (AID 430); format: functional, cell-based; conditions: Homo sapiens
Genome polyprotein = Genome polyprotein (dengue virus type 2, UniProt P29990); test: flavivirus cap methylation enzyme inhibition – biochemical, confirmation dose response, primary screen (AID 588689); format: functional
Genome polyprotein, sequence (P29990 2492-3391 limits assumed): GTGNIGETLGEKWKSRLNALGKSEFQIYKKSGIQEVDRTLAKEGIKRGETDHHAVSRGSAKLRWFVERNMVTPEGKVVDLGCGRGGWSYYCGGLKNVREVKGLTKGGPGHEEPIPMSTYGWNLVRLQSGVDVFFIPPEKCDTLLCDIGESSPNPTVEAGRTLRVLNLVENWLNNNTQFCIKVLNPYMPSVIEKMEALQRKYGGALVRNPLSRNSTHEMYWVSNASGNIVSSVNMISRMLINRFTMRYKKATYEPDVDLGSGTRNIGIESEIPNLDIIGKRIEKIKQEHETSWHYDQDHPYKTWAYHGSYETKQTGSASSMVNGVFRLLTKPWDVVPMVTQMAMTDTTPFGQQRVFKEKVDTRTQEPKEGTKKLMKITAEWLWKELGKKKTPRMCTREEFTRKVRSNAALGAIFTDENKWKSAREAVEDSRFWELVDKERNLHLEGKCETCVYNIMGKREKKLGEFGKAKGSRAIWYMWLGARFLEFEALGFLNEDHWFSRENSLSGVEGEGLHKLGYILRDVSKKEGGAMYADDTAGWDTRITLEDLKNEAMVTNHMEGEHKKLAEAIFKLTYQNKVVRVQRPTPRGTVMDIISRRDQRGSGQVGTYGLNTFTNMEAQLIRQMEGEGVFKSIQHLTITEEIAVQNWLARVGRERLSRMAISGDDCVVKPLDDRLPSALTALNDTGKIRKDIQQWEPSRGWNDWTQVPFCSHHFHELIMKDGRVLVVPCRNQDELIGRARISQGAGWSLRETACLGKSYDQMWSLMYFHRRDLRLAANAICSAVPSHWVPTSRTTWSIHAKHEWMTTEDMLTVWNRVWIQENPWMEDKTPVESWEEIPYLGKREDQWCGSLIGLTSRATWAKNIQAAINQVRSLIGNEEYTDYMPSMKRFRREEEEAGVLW

[9] = molecular target: Envelope glycoprotein gp160 (Human immunodeficiency virus 1, UniProt Q6QLK5); test: cell-free HIV fusion peptide-binding blockers – biochemical, uHTS, fluorescence dequenching, […] (AID 1986)
Envelope glycoprotein gp160, sequence (Q6QLK5 whole entry, the tested form may be a part): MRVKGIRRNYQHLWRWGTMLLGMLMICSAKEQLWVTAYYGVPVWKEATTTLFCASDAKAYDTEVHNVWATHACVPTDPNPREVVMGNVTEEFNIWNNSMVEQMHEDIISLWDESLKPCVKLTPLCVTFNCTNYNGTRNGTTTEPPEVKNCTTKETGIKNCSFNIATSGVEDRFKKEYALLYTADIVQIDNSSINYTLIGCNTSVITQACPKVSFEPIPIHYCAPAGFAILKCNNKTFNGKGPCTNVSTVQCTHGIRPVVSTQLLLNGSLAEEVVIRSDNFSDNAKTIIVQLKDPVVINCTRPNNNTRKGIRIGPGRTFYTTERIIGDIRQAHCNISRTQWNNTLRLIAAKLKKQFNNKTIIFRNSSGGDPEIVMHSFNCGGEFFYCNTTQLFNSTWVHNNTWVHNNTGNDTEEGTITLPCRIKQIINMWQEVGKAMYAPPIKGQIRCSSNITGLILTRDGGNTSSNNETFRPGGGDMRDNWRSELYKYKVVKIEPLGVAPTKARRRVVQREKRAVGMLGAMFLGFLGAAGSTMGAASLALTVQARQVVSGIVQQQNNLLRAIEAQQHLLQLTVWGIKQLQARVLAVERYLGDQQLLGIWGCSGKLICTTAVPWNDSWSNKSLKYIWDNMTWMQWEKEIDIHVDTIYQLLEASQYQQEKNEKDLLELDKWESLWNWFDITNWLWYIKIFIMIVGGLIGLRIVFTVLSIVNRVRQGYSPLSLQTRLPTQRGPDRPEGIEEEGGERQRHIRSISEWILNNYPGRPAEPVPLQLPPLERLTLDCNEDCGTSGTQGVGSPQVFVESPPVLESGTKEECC

[10] = molecular target: T3, Carboxy-terminal domain RNA polymerase II polypeptide A small phosphatase 1 (Homo sapiens, UniProt Q9GZU7); test: CTDSP1 inhibitors, concentration-response, biochemical, absorbance readout, ultra-high-throughput screen actives (AID 540297); format: functional
T3 sequence (Q9GZU7 whole entry): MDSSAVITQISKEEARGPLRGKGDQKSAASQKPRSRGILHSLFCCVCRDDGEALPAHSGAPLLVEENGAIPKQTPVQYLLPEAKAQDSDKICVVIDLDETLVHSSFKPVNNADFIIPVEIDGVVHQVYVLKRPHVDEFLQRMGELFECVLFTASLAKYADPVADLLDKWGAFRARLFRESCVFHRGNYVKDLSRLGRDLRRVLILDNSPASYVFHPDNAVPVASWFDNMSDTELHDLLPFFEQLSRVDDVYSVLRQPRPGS

CAAX prenyl protease 2 = CAAX prenyl protease 2 (Saccharomyces cerevisiae S288c, UniProt Q03530); format: biochemical
CAAX prenyl protease 2, sequence (Q03530 whole entry): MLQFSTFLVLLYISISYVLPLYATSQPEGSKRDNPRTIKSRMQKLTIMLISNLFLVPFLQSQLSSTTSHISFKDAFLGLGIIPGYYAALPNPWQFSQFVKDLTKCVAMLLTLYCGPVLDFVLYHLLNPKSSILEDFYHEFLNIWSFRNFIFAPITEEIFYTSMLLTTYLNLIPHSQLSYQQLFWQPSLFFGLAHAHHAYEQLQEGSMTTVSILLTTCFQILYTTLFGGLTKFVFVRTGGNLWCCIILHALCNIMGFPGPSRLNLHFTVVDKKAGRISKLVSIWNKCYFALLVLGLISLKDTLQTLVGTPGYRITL

For `Cc1cccc(OCC(=O)N/N=C\C=C\c2ccc3c(c2)OCO3)c1C`, the IC50 [1] was 5.84 µM (active), the IC50 [2] was > 111 µM (not active) and the “Absolute IC50 (CHOP)” value [3] was 10 µM. For the same molecule, the AC50 (Cytochrome P450 2C19) was 10 µM (inconclusive).

For `COc1ccc(C)cc1NC(=O)CCCN1C(=O)NC(C)(C)C1=O`, the IC50 [4] was 11 µM (active) and the IC50 [5] was 11.9 µM (active).

For `COc1ccc2c(c1)C1(Nc3ccccc3-c3nc4ccccc4n31)C(=O)N2C` (stereo not drawn), the EC50 [6] was > 20 µM (not active), the IC50 [7] was 2.85 µM (active) and the EC50 [8] was > 20 µM (not active).

With `O=C(O)CCN1C(=O)/C(=C2\C(=O)N(Cc3ccc(F)cc3)c3ccccc32)SC1=S` the IC50 (Genome polyprotein) was 41.2 µM (active), the IC50 [9] was > 99 µM (inactive) and the IC50 [10] was 3.03 µM (active).

With `C[C@@]12CCC=C[C@H]1[C@H](c1ccc(/C=C/c3ccccc3)cc1F)N(Cc1ccccc1)C2=O` the AC50 (CAAX prenyl protease 2) was 45.9 µM (active).
